# Publication PMC4019449 (Annals of Clinical and Translational Neurology, 2014)
# What was measured:
# GluN1/GluN2A receptors = GluN1/GluN2A receptors (Homo sapiens, UniProt Q05586+Q12879); assay: Screening of FDA-approved NMDAR antagonists, TEVC oocyte recordings, wild type; assay type: cell-based
# [1] = target: GluN1/GluN2A-N615K receptors (Homo sapiens, UniProt Q05586+Q12879, N615K); assay type: cell-based
# [2] = target: T1, GluN1/GluN2A-L812M receptors (Homo sapiens, UniProt Q05586+Q12879, L812M); assay type: cell-based
# [3] = target: T1, GluN1/GluN2A-L812M receptors; assay: Agonist potency, TEVC recordings from Xenopus laevis oocytes, L812M mutant; assay type: cell-based
# seizures of the proband = assay: Antiepileptic treatment of the proband; assay type: in vivo, human
# [4] = used in children; cited from earlier work
# [5] = tested on: animal models of epilepsy; conditions: wide range of animal models of epilepsy; cited from earlier work
# [6] = read-out: percent maximal inhibition
structure (smiles),measurement,setting,value
NC12CC3CC(CC(C3)C1)C2 [Amantadine],IC50,GluN1/GluN2A receptors,110 ± 11 µM
same,inhibition at 1000 µM,GluN1/GluN2A receptors; [6],94%
same,IC50,[1],458 ± 25 µM
same,inhibition at 1000 µM,[1]; [6],76%
same,IC50,[2],113 ± 5.1 µM
same,inhibition at 1000 µM,[2]; [6],88%
COc1ccc2c(c1)[C@]13CCCC[C@@H]1[C@H](C2)N(C)CC3 [Dextromethorphan],inhibition at 300 µM,GluN1/GluN2A receptors; [6],88%
same,IC50,[1],9 ± 1.3 µM
same,enhanced potency on N615K-containing NMDARs in comparison to wild-type NMDARs,[1]; N615K compared with wild type,twofold
same,inhibition at 300 µM,[1]; [6],92%
same,IC50,[2],33 ± 4.8 µM
same,inhibition at 300 µM,[2]; [6],91%
CN1CC[C@@]23CCCC[C@@H]2[C@@H]1Cc1ccc(O)cc13 [Dextrorphan],IC50,GluN1/GluN2A receptors,1.9 ± 0.3 µM
same,inhibition at 30 µM,GluN1/GluN2A receptors; [6],92%
same,IC50,[1],0.34 ± 0.06 µM
same,inhibition at 30 µM,[1]; [6],96%
same,IC50,[2],6.1 ± 1.3 µM
same,inhibition at 30 µM,[2]; [6],85%
NCC(=O)O [Glycine],"reduction in EC50 (increased potency), GluN2A-L812M vs wild type",[3]; L812M compared with wild type,eightfold
same,EC50,"[3]; read-out: Glycine EC50, L812M, in the presence of 100 μmol/L glutamate, -40 mV",0.14 ± 0.01 µM
CC12CC3CC(C)(C1)CC(N)(C3)C2 [Memantine],inhibition at 100 µM,GluN1/GluN2A receptors; [6],89%
same,inhibition at 100 µM,[1]; [6],69%
same,inhibition at 100 µM,[2]; [6],87%
same,cognitive ability,seizures of the proband; memantine treatment,remained unchanged
same,interictal EEG after treatment,"seizures of the proband; postmemantine EEG, wakefulness and sleep",no asymmetries or epileptiform discharges
same,myoclonic jerks,seizures of the proband; upon memantine treatment,ceased
same,side effects,seizures of the proband; ~0.5 mg/kg per day,without side effects
same,toxicity in children,[4],without toxicity
same,anticonvulsant effects,[5],anticonvulsant effects
